Reference: PubChem BioAssay (NCI)
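1) Cells in 96-well plates. 2) Compound, 48 h, 5 concentrations. 3) Linear interpolation between surrounding doses. 4) Unreached endpoint = highest concentration. TGI: total growth inhibition.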

Tests used:
Assay in all cases: growth of human tumour cells (NCI), 48 h
RXF 393 renal = system: RXF 393 renal
SK-MEL-5 melanoma = system: SK-MEL-5 melanoma
SR leukemia = system: SR leukemia
LOX IMVI melanoma = system: LOX IMVI melanoma
MCF7 breast = system: MCF7 breast
MDA-MB-435 = system: MDA-MB-435
UACC-62 melanoma = system: UACC-62 melanoma
SF-295 CNS = system: SF-295 CNS
HS 578T breast = system: HS 578T breast
SNB-75 CNS = system: SNB-75 CNS
KM12 colon = system: KM12 colon
COLO 205 colon = system: COLO 205 colon
K-562 leukemia = system: K-562 leukemia
SK-MEL-2 melanoma = system: SK-MEL-2 melanoma
OVCAR-3 ovarian = system: OVCAR-3 ovarian
SF-539 CNS = system: SF-539 CNS
NCI/ADR-RES ovarian = system: NCI/ADR-RES ovarian
RPMI-8226 leukemia = system: RPMI-8226 leukemia
HL-60(TB) leukemia = system: HL-60(TB) leukemia
NCI-H226 lung = system: NCI-H226 lung
MALME-3M melanoma = system: MALME-3M melanoma
DU-145 prostate = system: DU-145 prostate
A498 renal = system: A498 renal
MOLT-4 leukemia = system: MOLT-4 leukemia
PC-3 prostate = system: PC-3 prostate
UO-31 renal = system: UO-31 renal
HCT-116 colon = system: HCT-116 colon
T-47D breast = system: T-47D breast
CAKI-1 renal = system: CAKI-1 renal
SNB-19 CNS = system: SNB-19 CNS
786-0 renal = system: 786-0 renal
MDA-MB-231 breast = system: MDA-MB-231 breast
SW-620 colon = system: SW-620 colon
BT-549 breast = system: BT-549 breast
NCI-H522 lung = system: NCI-H522 lung
HT29 colon = system: HT29 colon
OVCAR-5 ovarian = system: OVCAR-5 ovarian
NCI-H23 lung = system: NCI-H23 lung
HOP-92 NSCLC = system: HOP-92 NSCLC
SK-MEL-28 melanoma = system: SK-MEL-28 melanoma
NCI-H460 lung = system: NCI-H460 lung
OVCAR-8 ovarian = system: OVCAR-8 ovarian
A549 NSCLC = system: A549 NSCLC
IGROV1 ovarian = system: IGROV1 ovarian
TK-10 renal = system: TK-10 renal
M14 melanoma = system: M14 melanoma
U251 CNS = system: U251 CNS
HCC-2998 colon = system: HCC-2998 colon
HOP-62 NSCLC = system: HOP-62 NSCLC
SK-OV-3 ovarian = system: SK-OV-3 ovarian
SN12C renal = system: SN12C renal
ACHN renal = system: ACHN renal
EKVX NSCLC = system: EKVX NSCLC
UACC-257 melanoma = system: UACC-257 melanoma
OVCAR-4 ovarian = system: OVCAR-4 ovarian
SF-268 CNS = system: SF-268 CNS
MDA-N = system: MDA-N
HCT-15 colon = system: HCT-15 colon
CCRF-CEM leukemia = system: CCRF-CEM leukemia

Measured: TGI

C1CN(C23OC4(N5CCOCC5)C5C6CC(C7C6C4C72)C53)CCO1 (stereo not drawn)
> 31.6 µM: ACHN renal
> 100 µM: RXF 393 renal | SK-MEL-5 melanoma | SR leukemia | LOX IMVI melanoma | MCF7 breast | MDA-MB-435 | UACC-62 melanoma | SF-295 CNS | HS 578T breast | SNB-75 CNS | KM12 colon | COLO 205 colon | K-562 leukemia | SK-MEL-2 melanoma | OVCAR-3 ovarian | SF-539 CNS | NCI/ADR-RES ovarian | RPMI-8226 leukemia | HL-60(TB) leukemia | NCI-H226 lung | MALME-3M melanoma | DU-145 prostate | A498 renal | MOLT-4 leukemia | PC-3 prostate | UO-31 renal | HCT-116 colon | T-47D breast | CAKI-1 renal | SNB-19 CNS | 786-0 renal | MDA-MB-231 breast | SW-620 colon | BT-549 breast | NCI-H522 lung | HT29 colon | OVCAR-5 ovarian | NCI-H23 lung | HOP-92 NSCLC | SK-MEL-28 melanoma | NCI-H460 lung | OVCAR-8 ovarian | A549 NSCLC | IGROV1 ovarian | TK-10 renal | M14 melanoma | U251 CNS | HCC-2998 colon | HOP-62 NSCLC | SK-OV-3 ovarian | SN12C renal | EKVX NSCLC | UACC-257 melanoma | OVCAR-4 ovarian | SF-268 CNS | MDA-N | HCT-15 colon | CCRF-CEM leukemia

CCOC(=O)C1C2C1C1C(C(=O)OCC)C21 (stereo not drawn)
> 100 µM: RXF 393 renal | SK-MEL-5 melanoma | SR leukemia | LOX IMVI melanoma | MCF7 breast | MDA-MB-435 | UACC-62 melanoma | SF-295 CNS | HS 578T breast | SNB-75 CNS | KM12 colon | COLO 205 colon | K-562 leukemia | SK-MEL-2 melanoma | OVCAR-3 ovarian | SF-539 CNS | NCI/ADR-RES ovarian | RPMI-8226 leukemia | HL-60(TB) leukemia | NCI-H226 lung | MALME-3M melanoma | DU-145 prostate | A498 renal | MOLT-4 leukemia | PC-3 prostate | UO-31 renal | HCT-116 colon | T-47D breast | CAKI-1 renal | SNB-19 CNS | 786-0 renal | MDA-MB-231 breast | SW-620 colon | BT-549 breast | NCI-H522 lung | HT29 colon | OVCAR-5 ovarian | NCI-H23 lung | HOP-92 NSCLC | SK-MEL-28 melanoma | NCI-H460 lung | OVCAR-8 ovarian | A549 NSCLC | IGROV1 ovarian | TK-10 renal | M14 melanoma | U251 CNS | HCC-2998 colon | HOP-62 NSCLC | SK-OV-3 ovarian | SN12C renal | ACHN renal | EKVX NSCLC | UACC-257 melanoma | OVCAR-4 ovarian | SF-268 CNS | MDA-N | HCT-15 colon | CCRF-CEM leukemia
